Three compounds from patent US20080200474A1, “NOVEL FLUNARIZINE SALT FORMS AND METHODS OF MAKING AND USING THE SAME” (TRANSFORM PHARMACEUTICALS, INC., priority 2007, published 2008) can be followed below.

Series [1] is classed as physicochemical. An excerpt: Dynamic vapor sorption (DVS) analysis was completed on flunarizine benzoate from about 0 to about 95 percent relative humidity at about 25 degrees C. (See FIG. 5). […] This is characteristic of a nonhygroscopic material.
Dynamic vapor sorption (DVS) analysis was completed on flunarizine fumarate from about 0 to about 95 percent relative humidity at about 25 degrees C. (See FIG. 9). […] This is characteristic of a nonhygroscopic material.
Flunarizine dihydrochloride is hygroscopic. The dihydrochloride salt rapidly adsorbs water (greater than 7 percent change in mass) at relative humidity levels above about 60 percent. The release of the adsorbed water is difficult upon desorption. In comparison, the flunarizine benzoate salt of the present invention adsorbs relatively little water (less than 1 percent change in mass) at relative humidity levels up to about 95 percent.

Series [2] in a line: Excipient compatibility, solid mixes sucrose:crospovidone:flunarizine salt 94:5:1 stored at 60 degrees C. It counts as physicochemical. The settings on record: sucrose:crospovidone:salt 94:5:1 (weight %), wetted and dried, seal crimped, stored at 60 degrees C. for 2 weeks. As for the experimental part:
Two solid mixes, one containing sucrose:crospovidone:flunarizine dihydrochloride 94:5:1 (weight %), and the other containing sucrose:crospovidone:flunarizine benzoate 94:5:1 (weight %), were prepared in mortars, transferred to separate vials and a small amount of water was added until a very viscous syrup was formed. The samples were left to air dry at room temperature for two days followed by one day under vacuum at 40 degrees C. After the processing was finished, pictures of the samples were taken. Vials with identical content to the ones pictured were seal crimped and stored at 60 degrees C. for 2 weeks. After this period, their pictures were taken.

Where a name gives a salt, the structure may show the parent alone. Read-outs that look alike come from different tables or passages of the source.

As for `Fc1ccc(C(c2ccc(F)cc2)N2CCN(CC=Cc3ccccc3)CC2)cc1.O=C(O)c1ccccc1` [flunarizine benzoate, 1-cinnamyl-4-(di-p-fluorobenzhydryl)piperazine benzoate], in series [1], the “stability over relative humidity (DVS)” value is recorded as “stable from about 0% to about 95% relative humidity”. The “hygroscopicity (DVS)” value in series [1] (about 25 degrees C.) is recorded as “nonhygroscopic”. For the same compound, the “water adsorption, change in mass” value in series [1] (relative humidity levels up to about 95 percent) is given as “less than 1%”. Further, the “degradation in excipient mix (comparison of images)” value in series [2] was “substantially more degradation had occurred in the mixes containing flunarizine dihydrochloride than those containing flunarizine benzoate”.

In the case of `Fc1ccc(C(c2ccc(F)cc2)N2CCN(C/C=C/c3ccccc3)CC2)cc1` [flunarizine dihydrochloride, reference compound], the “release of the adsorbed water upon desorption” value in series [1] (DVS desorption, about 25 degrees C.) is on record as “difficult”. Also, in series [1] (about 25 degrees C.), the “hygroscopicity (DVS)” value is “hygroscopic”. Moreover, the “water adsorption, change in mass” value in series [1] (relative humidity levels above about 60 percent, about 25 degrees C.) is given as “greater than 7%”. Moreover, in series [2], the “degradation in excipient mix (comparison of images)” value was “substantially more degradation”.

On to “1-cinnamyl-4-(di-p-fluorobenzhydryl)piperazine fumarate [flunarizine fumarate]”, for which the “stability over relative humidity (DVS)” value in series [1] is “stable from about 0% to about 95% relative humidity”. Further, the “hygroscopicity (DVS)” value in series [1] (about 25 degrees C.) is listed as “nonhygroscopic”.
